Assay results: US20240270741A1 (Cogent Biosciences, Inc., priority 2023, published 2024)

Target: FGFR2 (Homo sapiens, UniProt P21802)
Experiment: FGFR wild type enzyme assay (HTRF KinEASE-TK), FGFR2
Settings: Enz FGFR2 (nM), FGFR2 wild type enzyme assay

Sequence of FGFR2 (P21802 399-821 limits assumed): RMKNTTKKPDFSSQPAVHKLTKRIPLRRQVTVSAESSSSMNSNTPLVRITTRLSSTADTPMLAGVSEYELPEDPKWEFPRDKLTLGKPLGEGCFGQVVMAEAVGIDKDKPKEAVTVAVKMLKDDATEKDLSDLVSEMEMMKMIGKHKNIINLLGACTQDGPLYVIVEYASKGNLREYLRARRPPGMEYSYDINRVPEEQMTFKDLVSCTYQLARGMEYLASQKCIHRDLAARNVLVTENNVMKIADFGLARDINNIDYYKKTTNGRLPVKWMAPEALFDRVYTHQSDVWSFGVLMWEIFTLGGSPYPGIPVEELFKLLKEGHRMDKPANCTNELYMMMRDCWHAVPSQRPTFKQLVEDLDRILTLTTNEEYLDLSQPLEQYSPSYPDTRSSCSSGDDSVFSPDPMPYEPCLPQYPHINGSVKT

Compared with `N#Cc1ccccc1Sc1cc(-c2ccc(N3CCC(O)CC3)nc2)cn2ncc(C#N)c12` [Example 548, 4-((2-cyanophenyl)thio)-6-(6-(4-hydroxypiperidin-1-yl)pyridin-3-yl)pyrazolo[1,5-a]pyridine-3-carbonitrile], `N#Cc1ccccc1Sc1cc(-c2ccc(N3CCCC3)nc2)cn2ncc(C#N)c12` [Example 549, 4-((2-cyanophenyl)thio)-6-(6-(pyrrolidin-1-yl)pyridin-3-yl)pyrazolo[1,5-a]pyridine-3-carbonitrile] is 2.5-fold higher in IC50: 0.4 nM for the first, 1 nM for the second.

`N#Cc1cnn2cc(-c3ccc(N4CC[C@H](O)C4)nc3)cc(Sc3ncccc3F)c12` [Example 550, (S)-4-((3-fluoropyridin-2-yl)thio)-6-(6-(3-hydroxypryrrolidin-1-yl)pyridin-3-yl)pyrazolo[1,5-a]pyridine-3-carbonitrile] and `N#Cc1cnn2cc(-c3ccc(N4CC[C@@H](O)C4)nc3)cc(Sc3ncccc3F)c12` [Example 551, (R)-4-((3-fluoropyridin-2-yl)thio)-6-(6-(3-hydroxypyrrolidin-1-yl)pyridin-3-yl)pyrazolo[1,5-a]pyridine-3-carbonitrile] are within 1.5-fold of each other in IC50: 1.5 nM for the first, 2 nM for the second.

First: N#Cc1cnn2cc(-c3ccc(N4CCC(O)CC4)nc3)cc(Sc3ncccc3F)c12 [Example 552, 4-((3-fluoropyridin-2-yl)thio)-6-(6-(4-hydroxypiperidin-1-yl)pyridin-3-yl)pyrazolo[1,5-a]pyridine-3-carbonitrile]
Second: N#Cc1cnn2cc(-c3ccc(N4CCCC4)nc3)cc(Sc3ncccc3F)c12 [Example 554, 4-((3-fluoropyridin-2-yl)thio)-6-(6-(pyrrolidin-1-yl)pyridin-3-yl)pyrazolo[1,5-a]pyridine-3-carbonitrile]
The IC50 of the first is 2-fold lower: 1 nM for the first, 2 nM for the second. The first is the more potent here.

`N#Cc1cnn2cc(-c3ccc(N4CCNCC4)nc3)cc(Sc3ncccc3F)c12` [Example 553, 4-((3-fluoropyridin-2-yl)thio)-6-(6-(piperazin-1-yl)pyridin-3-yl)pyrazolo[1,5-a]pyridine-3-carbonitrile] and `CC(=O)N1CCN(c2ccc(-c3cc(Sc4ncccc4F)c4c(C#N)cnn4c3)cn2)CC1` [Example 555, 6-(6-(4-acetylpiperazin-1-yl)pyridin-3-yl)-4-((3-fluoropyridin-2-yl)thio)pyrazolo[1,5-a]pyridine-3-carbontrile] are the same in IC50: 1 nM for the first, 1 nM for the second.

Compared with `Cc1c(-c2cc(Sc3ccccc3C#N)c3c(C#N)cnn3c2)cnn1C1CCN(C#N)CC1` [Example 556, 4-((2-cyanophenyl)thio)-6-(1-(1-cyanopiperidin-4-yl)-5-methyl-1H-pyrazol-4-yl)pyrazolo[1,5-a]pyridine-3-carbonitrile], `Cc1c(-c2cc(Sc3ncccc3F)c3c(C#N)cnn3c2)cnn1C1CCN(C#N)CC1` [Example 557] is 2-fold higher in IC50: 1 nM for the first, 2 nM for the second.

First: Cn1cc(-c2cc(Sc3ccc(F)cc3C#N)c3c(C#N)cnn3c2)cn1 [Example 558, 4-((2-cyano-4-fluorophenyl)thio)-6-(1-methyl-1H-pyrazol-4-yl)pyrazolo[1,5-a]pyridine-3-carbonitrile]
Second: Cc1cccc(Sc2cc(-c3cnn(C)c3)cn3ncc(C#N)c23)c1C#N [Example 576, 4-((2-cyano-3-methylphenyl)thio)-6-(1-methyl-1H-pyrazol-4-yl)pyrazolo[1,5-a]pyridine-3-carbonitrile]
The IC50 of the first is 3.5-fold lower: 2 nM for the first, 7 nM for the second.

`N#Cc1cc(F)ccc1Sc1cc(-c2ccc(N3CCCC3)nc2)cn2ncc(C#N)c12` [Example 559, 4-((2-cyano-4-fluorophenyl)thio)-6-(6-(pyrrolidin-1-yl)pyridin-3-yl)pyrazolo[1,5-a]pyridine-3-carbonitrile] and `CN1CCN(c2ccc(-c3cc(Sc4ccc(F)cc4C#N)c4c(C#N)cnn4c3)cn2)CC1` [Example 560, 4-((2-cyano-4-fluorophenyl)thio)-6-(6-(4-methylpiperazin-1-yl)pyridin-3-yl)pyrazolo[1,5-a]pyridine-3-carbonitrile] are the same in IC50: 1 nM for the first, 1 nM for the second.

Compared with `Cc1c(-c2cc(Sc3ccc(F)cc3C#N)c3c(C#N)cnn3c2)cnn1C[C@@H](O)CO` [Example 561, (R)-4-((2-cyano-4-fluorophenyl)thio)-6-(1-(2,3-dihydroxypropyl)-5-methyl-1H-pyrazol-4-yl)pyrazolo[1,5-a]pyridine-3-carbonitrile], `CO[C@H]1CC[C@H](n2ncc(-c3cc(Sc4ccc(F)cc4C#N)c4c(C#N)cnn4c3)c2C)CC1` [Example 579, 4-((2-cyano-4-fluorophenyl)thio)-6-(1-((1r,4r)-4-methoxycyclohexyl)-5-methyl-1H-pyrazol-4-yl)pyrazolo[1,5-a]pyridine-3-carbonitrile] is 4.7-fold lower in IC50: 7 nM for the first, 1.5 nM for the second.

`CC(=O)NC1CCN(c2ccc(-c3cc(Sc4ccccc4C#N)c4c(C#N)cnn4c3)cn2)C1` (stereo not drawn) [Example 562, N-(1-(5-(3-cyano-4-((2-cyanophenyl)thio)pyrazolo [1,5-a]pyridin-6-yl)pyridin-2-yl)pyrrolidin-3-yl)acetamide] and `CC(=O)N[C@H]1CC[C@H](n2cc(-c3cc(Sc4ccccc4C#N)c4c(C#N)cnn4c3)cn2)CC1` [Example 574, N-((1r,4r)-4-(4-(3-cyano-4-((2-cyanophenyl)thio)pyrazolo [1,5-a]pyridin-6-yl)-1H-pyrazol-1-yl)cyclohexyl)acetamide] are the same in IC50: 1 nM for the first, 1 nM for the second.

`C[C@@H](O)C(=O)N1CCC[C@@H](n2cc(-c3cc(Sc4ccccc4C#N)c4c(C#N)cnn4c3)cn2)C1` [Example 563, 4-((2-cyanophenyl)thio)-6-(1-((R)-1-((R)-2-hydroxypropanoyl)piperidin-3-yl)-1H-pyrazol-4-yl)pyrazolo[1,5-a]pyridine-3-carbonitrile] and `CC(=O)N1CC[C@@H](n2cc(-c3cc(Sc4ccccc4C#N)c4c(C#N)cnn4c3)cn2)C1` [Example 582, (R)-6-(1-(1-acetylpyrrolidin-3-yl)-1H-pyrazol-4-yl)-4-((2-cyanophenyl)thio)pyrazolo [1,5-a]pyridine-3-carbonitrile] are the same in IC50: 1 nM for the first, 1 nM for the second.

`CO[C@@H](C)C(=O)N1CCC(n2cc(-c3cc(Sc4ccccc4C#N)c4c(C#N)cnn4c3)cn2)CC1` [Example 564, (S)-4-((2-cyanophenyl)thio)-6-(1-(1-(2-methoxypropanoyl)piperidin-4-yl)-1H-pyrazol-4-yl)pyrazolo[1,5-a]pyridine-3-carbonitrile] and `CO[C@H](C)C(=O)N1CCC(n2cc(-c3cc(Sc4ccccc4C#N)c4c(C#N)cnn4c3)cn2)CC1` [Example 565, (R)-4-((2-cyanophenyl)thio)-6-(1-(1-(2-methoxypropanoyl)piperidin-4-yl)-1H-pyrazol-4-yl)pyrazolo[1,5-a]pyridine-3-carbonitrile] are the same in IC50: 0.5 nM for the first, 0.5 nM for the second.

Going from `N#Cc1ccccc1Sc1cc(-c2cnn(CCO)c2)cn2ncc(C#N)c12` [Example 566, 4-((2-cyanophenyl)thio)-6-(1-(2-hydroxyethyl)-1H-pyrazol-4-yl)pyrazolo[1,5-a]pyridine-3-carbonitrile] to `N#Cc1ccccc1Sc1cc(-c2cnn(CCCO)c2)cn2ncc(C#N)c12` [Example 583, 4-((2-cyanophenyl)thio)-6-(1-(3-hydroxypropyl)-1H-pyrazol-4-yl)pyrazolo[1,5-a]pyridine-3-carbonitrile], the IC50 falls from 2 nM to 1 nM (2-fold). The second is the more potent here.

`C[C@@H](O)Cn1cc(-c2cc(Sc3ccccc3C#N)c3c(C#N)cnn3c2)cn1` [Example 567, (R)-4-((2-cyanophenyl)thio)-6-(1-(2-hydroxypropyl)-1H-pyrazol-4-yl)pyrazolo[1,5-a]pyridine-3-carbonitrile] and `C[C@H](O)Cn1cc(-c2cc(Sc3ccccc3C#N)c3c(C#N)cnn3c2)cn1` [Example 568, (S)-4-((2-cyanophenyl)thio)-6-(1-(2-hydroxypropyl)-1H-pyrazol-4-yl)pyrazolo[1,5-a]pyridine-3-carbonitrile] are the same in IC50: 1 nM for the first, 1 nM for the second.

Going from `N#Cc1ccccc1Sc1cc(-c2cn[nH]c2)cn2ncc(C#N)c12` [Example 569, 4-((2-cyanophenyl)thio)-6-(1H-pyrazol-4-yl)pyrazolo[1,5-a]pyridine-3-carbonitrile] to `CCn1cc(-c2cc(Sc3ccccc3C#N)c3c(C#N)cnn3c2)cn1` [Example 572, 4-((2-cyanophenyl)thio)-6-(1-ethyl-1H-pyrazol-4-yl)pyrazolo[1,5-a]pyridine-3-carbonitrile], the IC50 falls from 2 nM to 1 nM (2-fold). The second is the more potent here.

`C[C@H](O)CCn1cc(-c2cc(Sc3ccccc3C#N)c3c(C#N)cnn3c2)cn1` [Example 570] and `C[C@@H](O)CCn1cc(-c2cc(Sc3ccccc3C#N)c3c(C#N)cnn3c2)cn1` [Example 571, (R)-4-((2-cyanophenyl)thio)-6-(1-(3-hydroxybutyl)-1H-pyrazol-4-yl)pyrazolo[1,5-a]pyridine-3-carbonitrile] are the same in IC50: 1 nM for the first, 1 nM for the second.

First: N#Cc1ccccc1Sc1cc(-c2cnn(CC(=O)O)c2)cn2ncc(C#N)c12 [Example 573, 2-(4-(3-cyano-4-((2-cyanophenyl)thio)pyrazolo [1,5-a]pyridin-6-yl)-1H-pyrazol-1-yl)acetic acid]
Second: CC(C)(CO)n1cc(-c2cc(Sc3ccccc3C#N)c3c(C#N)cnn3c2)cn1 [Example 578, 4-((2-cyanophenyl)thio)-6-(1-(1-hydroxy-2-methylpropan-2-yl)-1H-pyrazol-4-yl)pyrazolo[1,5-a]pyridine-3-carbonitrile]
The IC50 of the first is 2-fold higher: 4 nM for the first, 2 nM for the second.

Going from `CNc1ccc(-c2cc(Sc3ccc(F)cc3C#N)c3c(C#N)cnn3c2)cn1` [Example 575, 4-((2-cyano-4-fluorophenyl)thio)-6-(6-(methylamino)pyridin-3-yl)pyrazolo[1,5-a]pryidine-3-carbonitrile] to `CN(C)c1ccc(-c2cc(Sc3ccccc3C#N)c3c(C#N)cnn3c2)cn1` [Example 580, 4-((2-cyanophenyl)thio)-6-(6-(dimethylamino)pyridin-3-yl)pyrazolo[1,5-a]pyridine-3-carbonitrile], the IC50 falls from 5 nM to 1 nM (5-fold).

Compared with `N#Cc1cnn2cc(-c3cn([C@H]4CCCNC4)nc3F)cc(Sc3ncccc3F)c12` [Example 577, (S)-6-(3-fluoro-1-(piperidin-3-yl)-1H-pyrazol-4-yl)-4-((3-fluoropyridin-2-yl)thio)pyrazolo[1,5-a]pyridine-3-carbonitrile], `N#Cc1ccccc1Sc1cc(-c2cnn([C@@H]3CCNC3)c2)cn2ncc(C#N)c12` [Example 581, (R)-4-((2-cyanophenyl)thio)-6-(1-(pyrrolidin-3-yl)-1H-pyrazol-4-yl)pyrazolo[1,5-a]pyridine-3-carbonitrile] is 14-fold lower in IC50: 7 nM for the first, 0.5 nM for the second. The second is the more potent here.
